Measurements taken from patent US9468607B2, “Ligand directed toroidal nanoparticles for therapy and diagnostic imaging” (WASHINGTON UNIVERSITY, priority 2007, dated 2016).
Read-outs that look alike come from different tables or passages of the source.

Assays:
[1] = Drug loading efficiency by reverse phase HPLC; type: physicochemical; conditions: drug encapsulated in nanoparticles
Description: Amphiphilic polymer (˜30 mg) was taken up in 3 mL of anhydrous chloroform (Aldrich, Inc.) and gently vortexed for 2 min. The organic phase (with or without the presence of any contrast agent, ˜5 mL of chloroform layer) was dried (anhydrous Na2SO4). Excess of anhydrous chloroform (35 mL) was added to the organic phase and was taken in a 50 mL, long necked test tube. Doxorubicin (0.27 mg/mL) was dissolved in 5 mL of nanopure water (0.2 μM) and was injected followed by gentle vortexing for few minutes. The chloroform was then slowly evaporated under reduced pressure at 45° C. for […], maintaining the pressure at 420-440 mbar. To this, an additional 5 mL of nanopure water (0.2 μM) was injected. The dispersion was sonicated in a Branson ultra sonic bath for ½ h (until a clear dispersion formed) maintaining the bath temperature at 50° C.
Amphiphilic polymer (˜27 mg) was taken up in 3 mL of anhydrous chloroform (Aldrich, Inc.) and gently vortexed for 2 min. The organic phase (with or without the presence of any contrast agent) was dried (anhydrous Na2SO4). […]
Doxorubicin was analyzed by reversed-phase HPLC system with Waters 600S as a controller, Waters 626 pump to deliver mobile phase, Waters 717 auto sampler for injection and Waters 474 scanning fluorescence detector at wavelength ex 470 nm/em 555 nm for detection. […]

[2] = for Drug release over 3 days: from nanoparticles, dialysis against 0.9% NaCl, 0.2 mg/ml human serum albumin, 37° C.; for % Drug remaining: dialysis at 37° C.

## COc1cccc2c1C(=O)c1c(O)c3c(c(O)c1C2=O)C[C@@](O)(C(=O)CO)C[C@@H]3O[C@H]1C[C@H](N)[C@H](O)[C@H](C)O1 [Doxorubicin]
[1]
  loading efficiency: 98+/−0.1%
[2]
  Drug release over 3 days: 12+/−0.6%

## CC[C@@]1(O)C(=O)OCc2c1cc1n(c2=O)Cc2cc3ccccc3nc2-1 [Camptothecin]
[1]
  loading efficiency: 99+/−0.1%
[2]; Day 1, in nanoparticles
  % Drug remaining: 93.48%
[2]; Day 2, in nanoparticles
  % Drug remaining: 87.57%
[2]; Day 3, in nanoparticles
  % Drug remaining: 83.38%
[2]
  Drug release over 3 days: 20+/−3.5%
